Marks after values point to notes of the source that are not given here.
Tests used:
[1] = biological target: T1, HIV-1 protease (Human immunodeficiency virus type 1 group M subtype B, UniProt P04585); test: HIV-1 protease inhibition assay (fluorescent substrate); type: biochemical; conditions: 10 μM compounds dissolved in DMSO; for inhibition at 10 µM: read-out: % Enzyme Inhibition HIV-I protease
T1 construct: HIV-1 protease enzyme (Sigma Aldrich); purchased Sigma Aldrich
Procedure: HIV-1 protease inhibition was performed by using a previously described method. HIV protease fluorescent substrate and HIV-1 protease enzyme (Sigma Aldrich) were used to determine HIV inhibition capacity of sample. Three primary controls i.e., blank, sample and positive control were used. Reaction mixture of 200 µL comprised of five enzyme units (5U) of HIV-1 protease along with 0.5 pmol of enzyme substrate. After addition of both enzymes and substrates, test compounds were added in different concentrations. Reaction mixture was incubated at 37 °C which leads to generation of fluorescence signal by cleaving Tyr-Pro peptide bond of the substrate. Finally reaction mixture was heated for 5 minutes at 90 °C to stop the reaction. The mixture was centrifuged at 12,000 rpm for 3 min. and supernatant was used to measure the fluorescence signal. The enzyme inhibition was calculated using the Equation (1).

[2] = system: angiotensin converting enzyme (ACE); test: Angiotensin converting enzyme (ACE) inhibition assay; type: biochemical; conditions: 10 μM compounds dissolved in DMSO
Procedure: ACE assay is based on ACE inhibitory activity of test samples. The enzyme activity was measured by production of hippuric acid from the substrate hippuryl-L-histidyl-L-leucine (HHL). ACE cleaves the substrate to expose a free N-terminus, which was fluorogenically labeled with o-phthaldialdehyde (OPA). The florescence signal was measured by using excitation of 350 nm and emission of 500 nm. ACE inhibition activity of samples was measured using the following equation: % inhibition = 100 − (Acontrol − Asample)/Acontrol × 100 (1) where A is the absorbance Equation (1).

[3] = DPPH· free radical scavenging assay; conditions: for IC50: DPPH· scavenging, 0.2 mM DPPH· in DMSO, absorbance 515 nm; for antiradical capacity lower than other series 3 analogues (fold): relative to other curcumin analogues in series 3
Procedure: DPPH^· assay is widely used to observe radical scavenging activity of various compounds and extracts. DPPH^· is stable N radical which is reduced to hydrazine during its reaction with hydrogen donors.
Initially, 0.2 mM DPPH^· solution was prepared using DMSO as the solvent. […] During reduction of DPPH^· solution by antiradical compound, absorption of DPPH^· was measured at 515 nm. The spectrophotometric data was acquired using BMG FLUOstar OPTIMA spectrophotometer (BMG Labtech, Durham, NC, USA) and the IC50 values were calculated.

[4] = system: Tyrosinase; test: Tyrosinase inhibition assay (L-DOPA substrate); type: biochemical; conditions: 10 μM compounds dissolved in DMSO
Procedure: Tyrosinase inhibition was calculated based on previously described methods using L-DOPA as the substrate. Tyrosinase inhibition depended upon the amount of dopachrome produced in the reaction mixture. Absorption was measured at 490 nm to calculate the amount of dopachrome produced. The assay was performed in 96-well clear polystyrene plates using FLUOstar OPTIMA plate reader. The tyrosinase inhibitory effect of sample was measured using the following the Equation (1).

[5] = Oxygen radical absorbance capacity (ORAC) assay; conditions: for ORAC antioxidant capacity: 1 μM compounds dissolved in DMSO, Trolox equivalence, mean ± SD
Procedure: ORAC assay is based on the free radical damage to a fluorescence probe measured by fluorescence intensity over the time. The fluorescein sodium salt was used as fluorescence probe and change in its intensity was estimated as the index of the degree of free radical damage. Assay was performed using method described elsewhere. Briefly, the standards and samples were prepared using 75 mM phosphate buffer (pH 7). As the peroxy radicals are generated from decomposition of 2,2'-azobis(2-amidino-propane) dihydrochloride (AAPH), the signal was quenched from fluorescein. However, in the presence of antioxidant samples the fluorescence signal can be stabilize which depends directly upon the antioxidant’s capacity to neutralize the free radical. Quadratic relation emerging from florescent area under the decaying curve was used to calculate antioxidant capacity as mmol Trolox equivalence per L.

[6] = Ferric reducing ability of plasma (FRAP) assay; conditions: for FRAP antioxidant capacity: 10 μM compounds dissolved in DMSO, Trolox equivalence, mean ± SD
Excerpt: The FRAP assay uses antioxidants in a redox-linked colorimetric assay to reduce ferric tripyridyl triazine to ferrous form at low pH [20].
FRAP assay is based on ferric to ferrous ion reduction to test the electron donating capacity of antioxidants. The assay was modified by using the 96-well microplate reader with an injection port system. Briefly, the FRAP working reagent was made using acetate buffer, 2,4,6-Tris (2-pyridyl)-s-triazine solution and ferric chloride in the ratio 10:1:1. […] After 6 min reaction time, absorbance was measured at 593 nm. Trolox standards at different concentrations were used to calculate the antioxidant capacity as mmol Trolox equivalence per L.

[7] = system: human endothelial lung cells; test: Cytotoxicity analysis by LDH release assay; type: cell-based; conditions: 10 µM, 24 hours
Procedure: In the current study authors conducted a toxicology study to confirm safety of compounds and their dosage for potential animal or clinical studies. The study was conducted at 10 µM concentration using human endothelial lung cells. […] Literature reports on cytotoxic behavior of potent natural antioxidants are rare. Research in the field of free radicals mainly deals with screening of novel antioxidants and their mechanism of action.
Human lung cell line (ATCC® PCS-100-022™) was purchased from American Type Culture Collection (Cederlane, Burlington, ON, Canada). Cell lines were maintained and grown in DMEM complete growth media, supplemented with 10% fetal bovine serum (FBS), 100 units/mL penicillin and 100 µg/mL streptomycin (Cederlane) at 37 °C, in a humidified 5% CO2 incubator. Cell growth medium was changed every 48 hours and when cells reached 80% confluence, they were detached from 75 cm^2 tissue culture flask using 0.25% trypsin-EDTA treatment. The detached cells were collected in sterile tube in FBS free media. Collected cells were then counted using the Millipore Scepter 2.0 handheld automated cell counter. Further assay specific analysis was performed as described in section 2.10.
Cytotoxicity assay was performed using Promega Cytotox 96® non-radioactive colorimetric assay (Promega Corporation). The assay measures the lactate dehydrogenase (LDH) release upon cell lysis. The released LDH from cells was measured in an enzymatic assay based on conversion of tetrazolium salt to a red formazan product. Briefly, 5,000 human endothelial lung cells in 100 µL of serum-free culture medium were seeded in 96 well sterile plates. Cells were allowed to adhere to the plates for 24 h at 37 °C in a humidified, 5% CO2 incubator. After 24 h, the serum-free media was replaced by test compounds in 100 µL of serum-free culture medium. […] The test compounds at 10 µM concentration were allowed to interact with cells for 24 hours after which absorbance were recorded at 490 nm using BMG FLUOstar OPTIMA spectrophotometer (BMG Labtech, Durham, NC). […]

[8] = DPPH assay, relative to curcumin

Compound	inhibition at 10 µM [1] [%]	% Enzyme Inhibition ACE [2]	IC50 [3] [µM]	% Enzyme Inhibition Tyrosinase [4]	ORAC antioxidant capacity [5]	FRAP antioxidant capacity [6]	DPPH· scavenging capacity weaker than curcumin (fold) [3, 8]	cytotoxicity ranking (LDH release), in words [7]	radical scavenging capacity higher than curcumin (fold) [3, 8]	antiradical capacity lower than other series 3 analogues (fold) ([3]; DPPH assay)	ORAC value, peroxyl radical scavenging capacity [5] [mM TE/L]	% Enzyme Inhibition HIV-I protease [1]	FRAP value ([6]; 10 µM concentration) [mM TE/L]
O=C1/C(=C(O)/C=C/c2ccccc2)CCC/C1=C\c1ccccc1 [Compound 2a]	48.2	19.69 ^g %	2860	46.1 ^i %	0.12 ± 0.01 ^g mmole TE/L	1.13 ± 0.4 ^g mmole TE/L	–	–	–	–	–	–	–
COc1ccc(/C=C/C(O)=C2\CCC/C(=C\c3ccc(OC)cc3)C2=O)cc1 [Compound 2c]	43.7	4.01 ^g %	4070	40.63 ^j %	0.11 ± 0.01 ^g mmole TE/L	1.32 ± 0.001 ^f mmole TE/L	~ 5 fold	–	–	–	–	–	–
COc1cc(/C=C/C(O)=C2\CCC/C(=C\c3ccc(O)c(OC)c3)C2=O)ccc1O [Compound 2d]	37.3	84.59 ^ab %	720	56.84 ^h %	0.50 ± 0.02 ^ef mmole TE/L	5.35 ± 0.1 ^b mmole TE/L	–	–	–	–	–	–	–
O=C1/C(=C(O)/C=C/c2ccc(Cl)cc2)CCC/C1=C\c1ccc(Cl)cc1 [Compound 2f]	9.9	No ACE inhibition activity was detected	710	60.15 ^ef %	0.49 ± 0.1 ^ef mmole TE/L	1.28 ± 0.04 ^fg mmole TE/L	–	–	–	–	–	–	–
Cc1ccc(/C=C/C(O)=C2\CCC/C(=C\c3ccc(C)cc3)C2=O)cc1 [Compound 2g]	20.1	15.04 ^g %	1360	59.44 ^fg %	0.84 ± 0.01 ^d mmole TE/L	1.12 ± 0.02 ^g mmole TE/L	–	lowest cytotoxicity effects	–	–	–	–	–
O=C1/C(=C(O)/C=C/c2ccccc2)CC/C1=C\c1ccccc1 [Compound 3a]	27	51.96 ^ef %	70	70.85 ^c %	1.12 ± 0.1 ^c mmole TE/L	1.41 ± 0.1 ^f mmole TE/L	–	–	over 10 fold	–	–	–	–
O=C1/C(=C(O)/C=C/c2ccc(O)cc2)CC/C1=C\c1ccc(O)cc1 [Compound 3b]	41.1	90.55 ^ab %	60	–	0.49 ± 0.1 ^ef mmole TE/L	2.29 ± 0.1 ^e mmole TE/L	–	–	over 10 fold	–	–	–	–
Cc1ccc(/C=C/C(O)=C2\CC/C(=C\c3ccc(C)cc3)C2=O)cc1 [Compound 3g]	22.7	46.19 ^ef %	510	67.18 ^d %	1.25 ± 0.04 ^bc mmole TE/L	0.95 ± 0.02 ^hi mmole TE/L	–	–	–	approximately 10 fold	–	–	–
O=C1/C(=C(O)/C=C/c2ccc([N+](=O)[O-])cc2)CC/C1=C\c1ccc([N+](=O)[O-])cc1 [Compound 3h]	44.8	88.01 ^ab %	360	59.22 ^fg %	0.84 ± 0.1 ^d mmole TE/L	1.05 ± 0.01 ^ghi mmole TE/L	–	–	–	approximately 10 fold	–	–	–
(1E,6E)-1,7-bis(4-hydroxy-3-methoxyphenyl)-1,6-heptadiene-3,5-dione [Curcumin, reference compound]	–	76.86 ^bc %	860	12.61 ^k %	1.89 ± 0.2 ^a mmole TE/L	5.01 ± 0.1 ^c mmole TE/L	–	–	–	–	5.01	–	–
(E)-2-(3,4-dimethoxybenzylidene)-5-((E)-3-(3,4-dimethoxyphenyl)acryloyl)cyclopentanone [Compound 3e]	–	56.95 ^de %	30	–	0.69 ± 0.1 ^e mmole TE/L	0.67 ± 0.02 ^j mmole TE/L	–	–	over 10 fold	–	–	44.5 ^cd %	–
(E)-2-(3,4-dimethoxybenzylidene)-6-((E)-3-(3,4-dimethoxyphenyl)acryloyl)cyclohexanone [Compound 2e]	–	36.56 ^f %	2570	–	0.60 ± 0.1^e mmole TE/L	0.47 ± 0.1 ^k mmole TE/L	–	–	–	–	–	61.6 ^a %	0.47
(E)-2-(4-hydroxy-3-methoxybenzylidene)-5-((E)-3-(4-hydroxy-3-methoxyphenyl)acryloyl)-cyclopentanone [Compound 3d]	–	93.89 ^a %	70	79.99 ^b %	0.75 ± 0.05 ^d mmole TE/L	6.70 ± 0.32 ^a mmole TE/L	–	–	over 10 fold	–	–	41.8 ^de %	–
(E)-2-(4-hydroxybenzylidene)-6-((E)-3-(4-hydroxyphenyl)acryloyl)cyclohexanone [Compound 2b]	–	88.73 ^ab %	2580	–	0.43 ± 0.1 ^f mmole TE/L	3.02 ± 0.02 ^d mmole TE/L	–	–	–	–	–	55.5 ^b %	–
